Data as given in US20090239839A1, “RECEPTOR ANTAGONIST” (TAKEDA PHARMACEUTICAL COMPANY LIMITED, priority 2003, published 2009).
pIC50: −log10 of the molar value. Structures can show the parent of a compound that is named as a salt.

Assays:
human-type OT7T022 [1] = target: T1, human-type OT7T022 (Homo sapiens, UniProt Q9GZQ6); assay: Binding inhibiting activity using human-type OT7T022-expressing CHO cell; conditions: 125I-labeled Y-RFRP-3 100 pM, membrane fraction, room temperature 1.5 hours; read-out: IC50 value (binding inhibiting rate)
T1 construct: expressed in transfected cells; host or cells: CHO cells (membrane fraction)
T1 sequence (Q9GZQ6 whole entry): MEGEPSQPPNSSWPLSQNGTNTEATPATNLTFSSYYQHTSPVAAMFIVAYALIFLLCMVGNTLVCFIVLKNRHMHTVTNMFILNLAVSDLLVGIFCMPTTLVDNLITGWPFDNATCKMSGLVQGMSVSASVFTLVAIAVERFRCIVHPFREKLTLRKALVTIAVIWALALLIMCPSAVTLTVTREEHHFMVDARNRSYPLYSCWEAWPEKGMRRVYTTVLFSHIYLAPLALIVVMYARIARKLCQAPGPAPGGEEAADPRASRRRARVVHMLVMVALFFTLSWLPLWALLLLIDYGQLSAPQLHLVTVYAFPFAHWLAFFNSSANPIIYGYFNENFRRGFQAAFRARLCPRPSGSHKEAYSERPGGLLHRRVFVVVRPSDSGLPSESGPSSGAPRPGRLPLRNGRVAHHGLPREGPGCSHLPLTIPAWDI
Procedure: Assessment of Binding Inhibiting Activity of Test Compound Using Human-Type OT7T022-Expressing CHO Cell
Twenty μm of a peptide (Y-RFRP-3) (sequence: Tyr-Val-Pro-Asn-Leu-Pro-Gln-Arg-Phe-amide) (0.1 mM) in which a Tyr residue had been added to a N-terminus of hRFRP-3-8 (sequence: Val-Pro-Asn-Leu-Pro-Gln-Arg-Phe-amide) having binding inhibiting activity equivalent to that of endogenous human-type RFRP-3 (hRFRP-3-28) for human-type OT7T022-expressing CHO cell and 10 μl of distilled water were mixed, 20 μl of a lactoperoxidase solution (Sigma, prepared using 0.1 M HEPES-NaOH, pH 7.0 in 10 μg/mL), 10 μl of Iodine-125 (Amersham, IMS-30, 74 MBq), and 20 μl of 0.005% hydrogen peroxide (Wako Pure Chemical Industries, Ltd.) were successively mixed therein, the mixture was allowed to stand at room temperature for 10 minutes, 600 μl of 0.1% TFA-water was added, this was separated by reverse phase HPLC, a peak of the labeled form was collected, an equivalent amount of a buffer for a binding test (50 mM TrisHCl (pH 7.5), 0.1% BSA, 5 mM EDTA, 0.5 mM PMSF, 20 μg/mL leupeptin, 0.1 μg/mL pepstatin A, […]) was added, and this was immediately stored on ice. A part thereof was 1/100 diluted, radioactivity was measured with a γ-counter, and the remaining authentic product was distributed, which was stored at −30° C.
To a 96-well microplate were added 1 μg of a membrane fraction, a compound and Y-RFRP-3 labeled with ^125I, which had been diluted with a reaction buffer (50 mM Tris-HCl, 5 mM EDTA, 0.1% BSA, 0.5 mM PMSF, 20 μg/ml leupeptin, 0.1 μg/ml pepstatin A, 4 μg/ml E-64, 10 mM MgCl2, pH 7.5), to 100 pM to react them at room temperature for 1.5 hours. For measuring non-specific binding, non-labeled Y-RFRP-3 was further added to […]. Then, a membrane fraction was transferred to a unifilter GF/C (Perkin Elmer) by filtering the reaction mixture using a cell harvester (Perkin Elmer), and this was washed with a cooled 50 mM Tris buffer (pH 7.5) five times. The filter was dried, Microsinti (Packard) was added to the filter, and radioactivity was measured with Topcount (Packard).
A binding inhibiting rate (IC50 value) of a test compound is shown in [Table 1].

human-type OT7T022 [2] = target: T1, human-type OT7T022; assay: Antagonist activity in cAMP production inhibiting test system using human-type OT7T022-expressing CHO cell; format: cell-based; conditions: agonist human-type RFRP-3-8 20 nM + forskolin 2 μM, intracellular cAMP amount
Procedure: Test of Antagonist Activity of Compound in Camp Production Inhibiting Test System Using Human-Type OT7T022-Expressing CHO Cell
Antagonist activity of a test compound was measured in an intracellular cAMP production inhibiting test system of a CHO cell expressing human-type OT7T022. In the cAMP production inhibiting test, as an assay buffer, a Hanks' balanced salt solution (Gibco) to which 20 mM HEPES pH 7.4, 0.1% bovine serum albumin, and 0.2 mM 3-isobutyl-1-methylxanthine (Sigma) had been added, was used. A sample compound was adjusted with an assay buffer so that the final concentration became 10^−5M, 10^−6M, 10^−7M, 10^−8M, or 10^−10M. An agonist: human-type RFRP-3-8 (Val-Pro-Asn-Leu-Pro-Gln-Arg-Phe-amide) was diluted with an assay buffer obtained by adding 4 μM (final concentration 2 μM) forscoline to 40 nM (final concentration 20 nM). A human-type OT7T022-expressing CHO cell was passaged on a 96-well plate at 4×10^4/well, and cultured at 37° C., 5% CO2 and 95% air for one day. The plate which had been cultured for one day was washed with an assay buffer (150 μl) two times and, after 30 minutes, this was cultured for 30 minutes at 37° C. and 100% air. […] An intracellular cAMP amount was measured according to a protocol of the present kit using cAMP-Screen™ system (ABI). […]

rat-type OT7T022 = target: T2, rat-type OT7T022 (Rattus norvegicus, UniProt Q9EP86); assay: Binding inhibiting activity using rat-type OT7T022-expressing CHO cell membrane fraction; conditions: iodine-labeled Y-RFRP-3 100 pM, membrane fraction 0.75 μg/well
T2 construct: expressed in transfected cells; host or cells: CHO cells (membrane fraction)
T2 sequence (Q9EP86 whole entry): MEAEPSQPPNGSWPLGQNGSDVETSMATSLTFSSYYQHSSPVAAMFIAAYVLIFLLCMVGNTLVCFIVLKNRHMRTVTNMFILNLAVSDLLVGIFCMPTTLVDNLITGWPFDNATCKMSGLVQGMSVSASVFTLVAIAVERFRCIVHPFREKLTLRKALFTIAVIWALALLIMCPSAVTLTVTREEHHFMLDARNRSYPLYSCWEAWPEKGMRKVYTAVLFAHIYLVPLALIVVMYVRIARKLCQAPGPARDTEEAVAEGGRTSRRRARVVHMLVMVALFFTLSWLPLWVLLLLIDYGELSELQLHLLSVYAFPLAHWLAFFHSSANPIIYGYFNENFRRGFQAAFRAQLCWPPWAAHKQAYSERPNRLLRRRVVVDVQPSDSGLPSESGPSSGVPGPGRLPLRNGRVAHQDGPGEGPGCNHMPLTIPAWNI
Procedure: Assessment of Binding Inhibiting Activity of Test Compound Using Rat-Type OT7T022-Expressing CHO Cell
A flask in which a rat-type OT7T022-expressing CHO cell had been cultured was washed with 5 mM EDTA/PBS, cells were peeled with 5 mM EDTA/PBS, and cells were recovered by centrifugation, suspended in 25 mL of a buffer for preparing a membrane fraction (50 mM Tris-HCl, pH 7.5, 5 mM EDTA, 0.5 mM PMSF (manufactured by Wako Pure Chemical Industries, Ltd.), […] (manufactured by Peptide Laboratory), 0.1 μg/mL pepstatin A (manufactured by Peptide Laboratory), 4 μg/mL E-64 (manufactured by Peptide Laboratory)), and homogenized on an ice using Polytron (12,000 rpm, 15 seconds×3 times). This was centrifuged in a high speed cooling centrifuge at 4° C. and 1,000 g for 10 minutes, and the supernatant was recovered. 25 mL of a buffer for preparing a membrane fraction was added to precipitates, and the supernatant was recovered by the same procedure. These supernatants were combined, subjected to a cell strainer, dispensed into tubes for a supercentrifuge, and centrifuged at 4° C. and 100,000 g for 1 hour. The pellet was suspended in a small amount of a buffer for preparing a membrane fraction, this was suspended using a Teflon (registered trade mark) homogenizer, a protein amount was measured using a part, and the remaining was dispensed, and stored at −80° C.
Using an assay buffer (50 mM Tris-HCl, pH 7.5, 5 mM EDTA, 0.5 mM PMSF, 20 μg/mL leupeptin, 0.1 μg/mL pepstatin A, 4 μg/mL E-64, 0.1% bovine serum albumin, 10 mM MgCl2), a membrane fraction of a rat-type OT7T022-expressing CHO cell was diluted to the final concentration of 0.75 μg/well, and iodine-labeled Y-RFRP-3 was diluted to the final concentration of 100 pM. Regarding a sample compound, a 10^−2M or 10^−3M stock solution was diluted with an assay buffer so that the final concentration became 10^−5M, 10^−6M, 10^−7M, 10^−8M, 10^−9M, 10^−10M or 10^−11M. For non-specific binding, hRFRP-3-8 having the final concentration of 10^−5M was prepared. Using a polypropylene 96-well plate, a prepared sample solution, a non-specific binding solution, and 50 μl of an assay buffer for total binding were dispensed, 25 μl of an iodine-labeled form diluent was added, the mixture was stirred, 25 μl of a rat-type OT7T022-expressing CHO cell membrane fraction solution was dispensed, and this was stirred, and incubated at room temperature for 1.5 hours. This was transferred to a unifilter (Perkin Elmer) pre-wetted with a washing buffer (50 mM Tris-HCl, pH 7.5) using a harvester for a 96-well plate (Packard), and this was washed with a washing buffer six times, and sufficiently dried. 50 μl of Microscinti O (Packard) was dispensed, radioactivity was measured with Top Count (Packard), and data were analyzed in a triplicate manner. Binding inhibiting activity (IC50 value) of a test compound for rat-type OT7T022 is shown in [Table 3].

Measured: pIC50

COc1c(OCCCNCCCc2ccccc2)cccc1[C@H]1O[C@H](CC(=O)NCc2ccccc2F)C(=O)N(CC(C)(C)C)c2ccc(Cl)cc21 (relative stereo) [Example 3, 2-(3,5-trans-7-Chloro-1-(2,2-dimethylpropyl)-5-{2-methoxy-3-[3-(3-phenylpropylamino)propoxy]phenyl}-2-oxo-1,2,3,5-tetrahydro-4,1-benzoxazepin-3-yl)-N-(2-fluorobenzyl)acetamide hydrochloride]
> 6.00: all assays above
